Measurements taken from US7572762B1, “Materials and methods relating to the induction of apoptosis in target cells” (University of Dundee, priority 1998, dated 2009).

Tests used:
Saos-2::p53^teti cells = experiment: FACS analysis of osteosarcoma cells with tetracycline-inducible p53; assay type: cell-based, human
[1] = tested on: p53 null lung carcinoma (H1299) cells; experiment: FACS analysis of apoptosis and cell cycle, H1299 cells; assay type: cell-based, human
Excerpt: FIG. 8 illustrates a representative FACS (fluorescence activated cell sorting) profile obtained from the experiment indicated; horizontal axis denote DNA content of the cells and the vertical axis the numbers of cells that have a particular DNA content. Apoptotic cells have a subnormal DNA content and are represented as a peak to the extreme left of the profile (sub-G1); viable cells are represented in G1 and G2/M peaks which correspond to these phases of the cell cycle. Where percentages are provided, these indicate cells in sub-G1, G1 or G2/M phases, as indicated, as a percent of the total cell population. In all cases, the existence of apoptotic cells was confirmed by additional means such as microscopic examination.
Bar charts show quantitative data obtained from representative FACS analyses for the experiments indicated. In all cases, numbers of cells that are apoptotic (sub-G1), as a percentage of the total cell population, are depicted by diagonal-hatched bars; numbers of cells that are viable and in G1 (G1/S) phase of the cell cycle, as a percentage of the total cell population, are depicted by stippled bars; viable cells in G2/M phase of the cell cycle are depicted by horizontal-hatched bars.
The experiments described in the examples were performed using methods well-known to those skilled in the art and documented in standard text books in the field (e.g. Chapters 4 and 5, Methods in Cell Biology Vol 46 editors L. M. Schwartz and B. A. Osborne, Academic Press Ltd, London 1995 provides inter alia details on detection of apoptosis and cell division cycle arrest by FACS).

[2] = tested on: human colon carcinoma (HT29) cells; experiment: FACS analysis of apoptosis, HT29 cells; assay type: cell-based
[3] = tested on: L428 Hodgkins lymphoma cells; experiment: FACS analysis of apoptosis and cell cycle, L428 cells; assay type: cell-based, human; settings: 48 hours
[4] = tested on: control B lymphoid (Daudi) cell line; experiment: FACS analysis of control B lymphoid cells; assay type: cell-based; settings: for apoptotic (sub-G1) cells: 48 hours, untreated basal apoptosis approximately 50%; for effect on control B cells: rimcazole 0.1 mM, 0.01 mM, 0.001 mM (FIG. 11c), haloperidol not shown
[5] = tested on: 293 cells (transformed kidney epithelial cells); experiment: FACS (propidium iodide) analysis of apoptosis, 293 cells; assay type: cell-based, human; parameters: cell population induced to apoptose: dose or concentration left out as unconfirmed
MCF7 cells = experiment: FACS analysis of hormone responsive breast carcinoma cells; assay type: cell-based, human; settings: rimcazole 0.001 mM, 48 hours
MDA MB 231 cells = experiment: FACS analysis of hormone unresponsive breast carcinoma cells; assay type: cell-based, human; settings: rimcazole 0.001 mM, 48 hours
MDA MB 468 cells = experiment: FACS analysis of hormone insensitive breast cancer cells; assay type: cell-based, human
MCF 7::p53^val135 cells = experiment: Phase micrographs of MCF 7 cells with temperature sensitive p53; assay type: cell-based, human
wild-type Saos-2 cells = experiment: Wild-type Saos-2 cells lacking p53; assay type: cell-based, human; settings: low dose rimcazole combined with doxycycline
[6] = tested on: MDA MB 468 human breast carcinoma xenografts; experiment: Human breast carcinoma xenograft growth in athymic mice; assay type: in vivo; settings: 10 mg/kg/day intraperitoneal, day 45; all or selected tumours
[7] = mouse, in vivo
Protocol: All drugs were dissolved in sterile water for injection and frozen as ˜2 ml aliquots, except haloperidol which was stored as a powder at RT and made up fresh each day in 45% cyclodextrin. The mice were housed in filter boxes in Maximiser laminar flow cabinets and fed sterilized food and water. All procedures were carried out in class 1 laminar flow hoods using sterile equipment and reagents. The mice were dosed daily by an intraperitoneal route (combined therapies dosed simultaneously) and body weights and tumour measurements recorded at frequent intervals.

## C[C@H]1c2cccc(O)c2C(=O)C2=C(O)[C@]3(O)C(=O)C(C(N)=O)=C(O)[C@@H](N(C)C)[C@@H]3[C@@H](O)[C@@H]21 [doxycycline]
Saos-2::p53^teti cells; low dose doxycycline alone
  cells undergoing apoptosis, % of total population: 4%

## COc1ccc2c(c1OC)C(=O)O[C@@H]2[C@H]1c2c(cc3c(c2OC)OCO3)CCN1C (relative stereo) [noscapine, (S-(R*,S*))-6,7-Dimethoxy-3-(5,6,7,8-tetrahydro-4-methoxy-6-methyl-1,3-dioxolo(4,5-g)isoquinolin-5-yl)-1(3H)-Isobenzofuranone]
[1]; 10^−4M combined with TNF 5 ng/ml
  apoptotic cells, % of total cell population: 74%
[1]; 10^−4M, 48 hours, alone
  apoptotic cells: 39%
[2]; 10^−4M on its own
  apoptosis, % of cell population: 67%
[2]; 10^−4M with TNF added
  apoptosis: additional increase
[3]; 10^−4M
  apoptosis induction: majority of the cell population
[3]; 10^−5M
  apoptosis induction: substantial amount of apoptosis
  mitotic arrest (G2/M cells): increase in percentage of G2/M cells
[4]
  apoptotic (sub-G1) cells: approximately 50%

## C[C@@H]1CN(CCCn2c3ccccc3c3ccccc32)C[C@H](C)N1 [rimcazole, cis-9-[3-(3,5-Dimethyl-1-piperazinyl)propyl]-9H-carbazole]
[5]; rimcazole alone
  cell population induced to apoptose: 1%
[5]; rimcazole in combination with transiently overexpressed p53
  cell population induced to apoptose: 75%
[1]; rimcazole 0.01 mM in combination with trans-U50488 0.1 mM
  apoptosis: 67%
[1]; sublethal dose alone
  apoptosis, % of cells: 4%
[1]; sublethal dose of rimcazole with sublethal dose of TNF
  apoptosis, % of cells: 61%
[4]
  effect on control B cells: unaffected
MCF7 cells
  apoptosis: 6%
  proportion of G2/M cells: 32%
MDA MB 231 cells
  apoptotic cells, % of total cell population: 25%
  proportion of G2/M cells: 62%
MDA MB 468 cells; 0.001 mM, approximately 48 hours
  apoptotic cells: 16%
MDA MB 468 cells; 0.01 millimoles per liter, approximately 48 hours
  apoptosis, % of cell population: 79%
MDA MB 468 cells; rimcazole 0.001 mM combined with cis-U50488 0.1 mM
  cells induced to apoptose: 83%
MCF 7::p53^val135 cells; 32 degC (p53 wild-type conformation), e.g. 0.001 mM
  apoptosis (phase micrographs): marked induction of apoptosis
MCF 7::p53^val135 cells; 37 degC
  apoptosis (phase micrographs): largely unaffected
MCF 7::p53^val135 cells; 37 degC (p53 largely inactive), 0.1 mM
  apoptosis (phase micrographs): Apoptosis is induced
Saos-2::p53^teti cells; rimcazole 100 nM alone
  cell population induced to apoptose: approximately 5%
Saos-2::p53^teti cells; rimcazole 100 nM combined with doxycycline 0.02 μg/ml
  apoptotic cells: 85%
wild-type Saos-2 cells
  effect of combination on apoptosis: no effect
[6]
  tumour growth inhibition (tumour weights at excision): significant tumour growth inhibition

## O=C(CCCN1CCC(O)(c2ccc(Cl)cc2)CC1)c1ccc(F)cc1 [haloperidol, 4(4-(4-chlorophenyl)-4-hydroxy-1-piperidinyl)-1-(4-fluorophenyl)-1-Butanone]
[5]; haloperidol 10^−5 M combined with transfected RelA(p65)
  apoptotic cells: 47%
[5]; haloperidol 10^−5 M on its own
  apoptotic cells: 2-3%
[5]; haloperidol without IκB (FIG. 9c)
  sub-G1 apoptotic cells, % of total cell population: 58%
[5]; non-degradable mutant IκB plasmid transfected prior to haloperidol
  sub-G1 apoptotic cells, % of total cell population: 5%
[1]; haloperidol 10^−5M alone
  apoptosis: 4%
[1]; haloperidol 10^−5M combined with TNF
  apoptosis: 59%
[4]
  effect on control B cells: unaffected
[6]
  tumour growth inhibition (tumour weights at excision): growth inhibition
[7]
  ill effects / toxicity in mice: transient sleepiness

## Oc1ccc2c3c1O[C@H]1c4[nH]c5ccccc5c4C[C@@]4(O)[C@@H](C2)N(CC2CC2)CC[C@]314 [naltrindole]
[5]
  induction of death: fails to induce death
  induction of sub-G1 (apoptotic) cells: marked induction
[1]
  G2/M cell cycle arrest: appearance of a G2/M peak
  induction of apoptosis: marked induction of apoptosis
[3]; 10^−4M
  apoptosis induction: majority of the cell population
[3]; 10^−5M
  apoptosis induction: substantial amount of apoptosis
  mitotic arrest (G2/M cells): increase in percentage of G2/M cells
[4]
  apoptotic (sub-G1) cells: approximately 50%

B1: proenkephalin: proenkephalin destined for the secretory pathway, overexpressed from transiently transfected plasmid DNA (protein, UniProt P01210 1-267, looked up)
chain: MARFLTLCTWLLLLGPGLLATVRAECSQDCATCSYRLVRPADINFLACVMECEGKLPSLKIWETCKELLQLSKPELPQDGTSTLRENSKPEESHLLAKRYGGFMKRYGGFMKKMDELYPMEPEEEANGSEILAKRYGGFMKKDAEEDDSLANSSDLLKELLETGDNRERSHHQDGSDNEEEVSKRYGGFMRGLKRSPQLEDEAKELQKRYGGFMRRVGRPEWWMDYQKRYGGFLKRFAEALPSDEEGESYSKEVPEMEKRYGGFMRF
modifications: full-length
notes: proenkephalin destined for the secretory pathway, overexpressed from transiently transfected plasmid DNA
[5]; alone, 48 hours, TNF 5 ng/ml, proenkephalin 5 μg plasmid DNA (secretory) transfected
  induction of apoptosis: no induction of apoptosis
[5]; proenkephalin + TNF, co-transfection of 5 μg IκB plasmid
  reduction in percentage of sub-G1 (apoptotic) cells: greater than 50%
[5]; proenkephalin overexpressed in combination with TNF 5 ng/ml
  percentage of apoptotic (sub-G1) cells: marked increase
